Data set [1] can be described thus: Rat pharmacokinetics after intravenous administration. The note with it: Sprague-Dawley, plasma, 1.5 mg/kg. Type of data set: in vivo, Sprague-Dawley rats. Here is the method:
The pharmacokinetics of HES-10-HCPT-SS-Ly micelles and 10-HCPT injection in Sprague-Dawley rats were evaluated in this study (n = 6). Briefly, HES-10-HCPT-SS-Ly micelles and 10-HCPT injection were injected, respectively. The dose of 10-HCPT was 1.5 mg/kg in both groups. 0.2 mL blood was collected 5 min, 10 min, 15 min, 30 min, 60 min, 2 h, 4 h, 6 h, 8 h, 12 h, 24 h, 48 h, and 72 h after administration. The concentration of 10-HCPT in plasma was determined by HPLC–MS/MS method.

The test system of data set [2] is Hep-G2 cells. The data set can be described thus: MTT cytotoxicity assay. Type of data set: cell-based. To be noted: Homo sapiens. As for the experimental part: The in vitro cytotoxicity of HES-10-HCPT-SS-Ly micelles was evaluated by MTT assay and Hep-G2 cell lines were used as model object. The Hep-G2 cells were seeded by using 96-well plates and the cell density was 6 × 10^3. The temperature of cell culture was 37 °C and the concentration of CO2 was 5%. The culture medium was removed after 24 h and the micelle solutions with different concentrations are added. The incubation time was 48 h and 72 h respectively to fully evaluate the relationship between cytotoxicity and culture time. Then, 50 μL MTT (0.25 mg/mL) was added to each well and the supernatant was removed. The precipitated formazan crystals were dissolved by DMSO solution after 4 h. The OD values were determined by using an ELIASA reader and the detection wavelength was 492 nm. In addition, cellular uptake of HES-10-HCPT-SS-Ly micelles was also assessed in Hep-G2 cell line. Similarly, the culture medium was removed and different 10-HCPT preparations were added with concentrations of 1.0 mg/mL 24 h after incubation. The 96-well plate was incubated at room temperature on a plate shaker for 24 h, the cells were then washed three times with PBS solution. […] Then, the concentration of 10-HCPT in Hep-G2 cells was determined by HPLC–MS/MS method.
A general note: Formazan colour is commonly taken as a measure of viable cells.

Data set [3] concerns Hep-G2 cells. Kind of data set: Cellular uptake test (10-HCPT in cells by HPLC-MS/MS). The data set is classed as cell-based, human. To be noted: pH 7.4, 72 h incubation, compared with HES-10-HCPT micelles and HES-10-HCPT-SS-Ly micelles. Here is the method:
The in vitro cytotoxicity of HES-10-HCPT-SS-Ly micelles was evaluated by MTT assay and Hep-G2 cell lines were used as model object. The Hep-G2 cells were seeded by using 96-well plates and the cell density was 6 × 10^3. The temperature of cell culture was 37 °C and the concentration of CO2 was 5%. The culture medium was removed after 24 h and the micelle solutions with different concentrations are added. The incubation time was 48 h and 72 h respectively to fully evaluate the relationship between cytotoxicity and culture time. Then, 50 μL MTT (0.25 mg/mL) was added to each well and the supernatant was removed. The precipitated formazan crystals were dissolved by DMSO solution after 4 h. The OD values were determined by using an ELIASA reader and the detection wavelength was 492 nm. In addition, cellular uptake of HES-10-HCPT-SS-Ly micelles was also assessed in Hep-G2 cell line. Similarly, the culture medium was removed and different 10-HCPT preparations were added with concentrations of 1.0 mg/mL 24 h after incubation. […] Briefly, cells were collected and lysed using a French Pressure Cell, the lysate was clarified by centrifugation, and the supernatant liquid was processed by applying liquid–liquid extraction. Then, the concentration of 10-HCPT in Hep-G2 cells was determined by HPLC–MS/MS method.

Results on one compound are retold here after publication PMC7170360 (Drug Delivery, 2020).

The half-life is the time in which the quantity being followed falls by half. Low readings indicate fast loss, high ones slow loss. Broadly, the IC50 is the concentration needed to halve the response being measured. A higher IC50 goes with weaker potency.

Consider `CC[C@@]1(O)C(=O)OCc2c1cc1n(c2=O)Cc2cc3cc(O)ccc3nc2-1` [free 10-HCPT, 10-Hydroxy camptothecin], for which the half-life in data set [1] came to 10 min. The IC50 in data set [2] (HepG2, culture medium pH 7.4, MTT) worked out at 5.1 µM; in data set [2] (HepG2, pH 5.5, MTT) it was 4.3 µM. Further, the “cellular uptake by Hep G2 cells” value in data set [3] was “more easily taken up”.
